Measurements: patent US20140178892A1, “SCREENING METHODS BASED ON VESICLE MOBILITY” (priority 2011, published 2014)

Assays:
[1] = system: dextran-labeled vesicles carrying MHC class II molecules in astrocytes; assay: Mobility of Alexa Fluor 546 dextran-labeled MHC class II vesicles in control and IFNγ activated astrocytes; type: cell-based; details: for average vesicle maximal displacement / average vesicle track length: FIG. 4
Excerpt: (§1) Cell organelles are stained by commercially available dyes and/or by cell transfection. E.g. peptidergic secretory vesicles are labeled by cell transfection for the secretory peptide—pro-atrial natriuretic peptide tagged with emerald green fluorescent protein (ANP.emd; see Han et al., Proc Natl Acad Sci USA. 1999; 96:14577-14582; Krian et al., J. Neurosci. 2003; 23(5):1580-3.). Glutamatergic vesicles are stained by cell transfection for vesicular glutamate transporter 1 tagged with green fluorescent protein (VGLUT1-GFP). ATP containing vesicles are stained by incubation of cells in quinacrine dihydrochloride (1 μM, 15 min at room temperature) (Pangrsic et al., J Biol. Chem. 2007; 28; 282(39):28749-58) and endosomes/lysosomes by incubation of cells in LysoTracker Red DND-99 (200 nM, 5 min, RT, Invitrogen) (Potokar et al., Glia. 2010; 58(10):1208-19). To observe MHC class II expression cells are loaded with 0.1 mg/ml Alexa Fluor^546 dextran (Molecular Probes, Invitrogen) for 16 hours at 37° C.
(§2) Cell cultures are treated with the biologically active substances (i.e. constituents of sera, cerebrospinal fluid and other biologically relevant small inorganic and organic substances, other related substances and mixtures of these), or with the reference standard compound, which consists of FTY720 and FTY720-phosphate (FTY720-P) in ratio from 1:0.1 to 1:100, dissolved in cell culture medium for 10 min at 18-37° C. To observe augmentation of the MHC class II molecule expression, cells are treated with interferon gamma (IFN-γ) for 48 hours at 37° C. or any other stimulant of the antigen presentation.
(§3) Cell loaded coverslips are then rinsed with extracellular solution (consisting of 10 mM HEPES/NaOH (pH 7.2), 10 mM D-glucose, 130 mM NaCl, 2 mM CaCl2, 2 mM MgCl2, and 5 mM KCl) and observed by fluorescence microscopy at 63× or 100× magnification using 488 nm Ar—Ion laser excitation (for ANP.emd, VGLUT1-GFP and quinacrine dihydrochloride) or 543 nm He—Ne laser exitation (for LysoTracker Red DND-99, Alexa Fluor^546 dextran), and band-pass filtered at 505-530 nm or long-pass filtered at 560 nm. Time-lapse fluorescence images are acquired at 0.5-2 Hz for 1-10 minutes to monitor vesicle mobility.
Cells can be stimulated with adenosine triphosphate (ATP) or any other stimulus of exocytotic release to record vesicle mobility and secretion before and after cell stimulation.
(§4) Vesicle traffic is analyzed by particle tracking software previously described (Potokar et al.; Biochem Biophys Res Commun. 2005; 329(2):678-83).
(§5) Several mobility parameters are determined for variable time epochs typically lasting 10-60 seconds: step length (displacement of a vesicle within the two successive frames), speed, track length (TL; the total path traveled by a vesicle within the defined time epoch), the vesicle maximal displacement (MD; a measure for the net translocation of a vesicle within the defined time epoch; cf. Wacker et al., J Cell Sci 110 (Pt 13):1453-63), the angle of MD and the directionality index (DI; the ratio of MD to TL).
The example of vesicle mobility modulation in relation to the antigen presentation in IFNγ activated astrocytes. […] Therefore the mobility analysis of dextran-labeled vesicles can be applied to describe the modulated mobility of the vesicles carrying MHC class II molecules upon stimulation of antigen presentation in astrocytes. […]

[2] = system: secretory vesicles in transfected astrocytes expressing ANP.emd; assay: Mobility of fluorescently labeled (ANP.emd) secretory vesicles in cultured astrocytes, particle tracking of time-lapse fluorescence images; type: cell-based, rat; details: for mean vesicle track length (TL) / mean vesicle maximal displacement (MD): 10 μM sphingosine, versus standard reference compound (Stand), 15 s epochs; for mean vesicle track length (TL): FIG. 2E; for mean vesicle maximal displacement (MD): FIG. 2F
Protocol: Cultured astrocytes, e.g. isolated as previously described by Schwartz & Wilson (Glia. 1992; 5(1):75-80) or any other cell type isolated from animal tissues or clonal cell lines derived from human or animal sources are seeded onto coverslips and maintained in an adequate cell cultured medium.
as §1
as §2, with “To observe augmentation of the MHC class II molecule expression, cells are treated with interferon gamma (IFN-γ) for 48 hours at 37° C. or any other stimulant of the antigen presentation.” left out
as §3, §4, §5
Example of the analysis of biologically active substances, such as sphingosine and immunoglobulin G (IgG) from human serum, on the mobility of secretory vesicles with respect to the effect of the standard compound, which is also the subject of the present invention. The example is shown in FIGS. 2E and F. The mobility of fluorescently labeled vesicles in transfected astrocytes expressing ANP.emd was analyzed by particle analyzing program Track2 and quantitative parameters of vesicle mobility were determined. […]

[3] = system: MHC class II molecules in astrocytes; assay: MHC class II expression in astrocytes by immunostaining and fluorescence microscopy; type: cell-based; details: IFNγ treated versus control astrocytes; overlay with dextran loaded structures; FIG. 3
Excerpt: as §1, with “C. […]” for “C.”

[4] = cell stimulation with 1 mM ATP, control and IFNγ treated cells
[5] = IFNγ treated astrocytes versus non-treated control cells (Spon.)

**Q.** Which results are given for `Nc1ncnc2c1ncn2[C@@H]1O[C@H](COP(=O)(O)OP(=O)(O)OP(=O)(O)O)[C@@H](O)[C@H]1O` [ATP, adenosine triphosphate]?
**A.** average vesicle maximal displacement [1, 4]: reduces; average vesicle track length [1, 4]: reduces

**Q.** `CCCCCCCCCCCCC/C=C/[C@@H](O)[C@@H](N)CO` [sphingosine] was tested. Which “mean vesicle track length (TL)” value [2] did it give?
**A.** The value was “significantly attenuates”.

**Q.** What about the “mean vesicle track length (TL)” value ([2]; listed as Sphingosine) of the same molecule?
**A.** Its value is “strongly attenuates”.

**Q.** What about the “mean vesicle maximal displacement (MD)” value [2] of the same molecule?
**A.** Its value is “significantly attenuates”.

**Q.** What about the “mean vesicle maximal displacement (MD)” value ([2]; listed as Sphingosine) of the same molecule?
**A.** The value was “strongly attenuates”.

**Q.** What about the vesicle mobility ([2]; dependence on extracellular concentration, regions near the plasmalemma and deeper in the cytoplasm) of the same molecule?
**A.** Its vesicle mobility is “dose-dependently attenuated”.

B1: IFNγ: cytokine interferon gamma (protein, UniProt P01579 24-161, looked up)
Interferon gamma: QDPYVKEAENLKKYFNAGHSDVADNGTLFLGILKNWKEESDRKIMQSQIVSFYFKLFKNFKDDQSIQKSVETIKEDMNVKFFNSNKKKRDDFEKLTNYSVTDLNVQRKAIHELIQVMAELSPAAKTGKRKRSQMLFRG
**Q.** What does the source list for B1?
**A.** average vesicle maximal displacement [1, 5]: significantly increase; average vesicle track length [1, 5]: significantly increase; mobility, in particular long-range mobility, of MHC class II-positive vesicles ([1]; astrocytes exposed to interferon-γ): enhanced; expression of MHC class II molecules [3]: induces
